According to PMC5308383 (2016):
Blank lines part the entries; values can stand above or below the molecule they belong to.

Assays:
[1] = tested on: LSA (DNA, aptamer, C3 spacer abasic at 10 of strand 2) CTCCTTCAACGAAGTGGGTTCCTTGTCTC/GAGACAAGGNACAAGGAG; assay: fluorescence quenching; settings: 100 μM MgCl2; 10 mM Tris-HCl, pH 7.4; 1 μM each strand; 200 nM ATMND; no cocaine; 75% quenching
[2] = tested on: CBSA-5325 (DNA, aptamer, C3 spacer abasic at 10 of strand 2) CTCCTTCAACGAAGTGGGTTCCTTCAACGAAGTGGGTCTC/GAGACAAGGNACAAGGAG; assay: fluorescence quenching titration, Scatchard; settings: 100 μM MgCl2; 10 mM Tris-HCl, pH 7.4; 200 nM ATMND; 1 mM cocaine present (cocaine-assembled aptamer)
[3] = tested on: CBSA-5325 (fluorophore/quencher-modified) (DNA, aptamer, C3 spacer abasic at 10 of strand 2) CTCCTTCAACGAAGTGGGTTCCTTCAACGAAGTGGGTCTC/GAGACAAGGNACAAGGAGT; assay: fluorophore/quencher assembly titration, Hill fit; settings: 100 μM MgCl2; 10 mM Tris-HCl, pH 7.4, room temperature; 1 μM each strand; nH 1.1; apparent
[4] = tested on: CBSA-5335-GT (fluorophore/quencher-modified) (DNA, aptamer, C3 spacer abasic at 10 of strand 2) CTCCTTCAATGAAGTGGGTCTCCTTCAACGAAGTGGGTCTC/GAGACAAGGNGACAAGGAGT; assay: fluorophore/quencher assembly titration, Hill fit; settings: 100 μM MgCl2; 10 mM Tris-HCl, pH 7.4, room temperature; 1 μM each strand; nH 1.5; apparent
[5] = tested on: 38-GC-20C (DNA, aptamer) GGGAGACAAGGAAAATCCTCCAACGAAGTGGGTCTCCC; assay: ITC; settings: 20 μM aptamer, 500 μM cocaine titrant
[6] = tested on: 38-GC (DNA, aptamer) GGGAGACAAGGAAAATCCTTCAACGAAGTGGGTCTCCC; assay: ITC; settings: 20 μM aptamer, 500 μM cocaine titrant
[7] = tested on: 38-GC-22T (DNA, aptamer) GGGAGACAAGGAAAATCCTTCTACGAAGTGGGTCTCCC; assay: ITC; settings: 20 μM aptamer, 500 μM cocaine titrant
[8] = tested on: CBSA-5435 (DNA, aptamer, C3 spacer abasic at 11 of strand 2) CTCCTTCAACGAAGTGGGTCTTCCTTCAACGAAGTGGGTCTC/GAGACAAGGANGACAAGGAG; assay: ATMND quenching assembly assay; settings: 100 μM MgCl2
[9] = tested on: LSA (DNA, aptamer, C3 spacer abasic at 10 of strand 2) CTCCTTCAACGAAGTGGGTTCCTTGTCTC/GAGACAAGGNACAAGGAG; assay: ATMND quenching assembly assay; settings: 100 μM MgCl2; 10 mM Tris-HCl, pH 7.4; 1 μM each strand; 250 μM cocaine, additional 10% change; mostly pre-assembled
[10] = tested on: CBSA-5325 (DNA, aptamer, C3 spacer abasic at 10 of strand 2) CTCCTTCAACGAAGTGGGTTCCTTCAACGAAGTGGGTCTC/GAGACAAGGNACAAGGAG; assay: ATMND quenching assembly assay; settings: 100 μM MgCl2; 10 mM Tris-HCl, pH 7.4; 1 μM each strand; 200 nM ATMND; 250 μM cocaine, 72% quenching
[11] = tested on: CBSA-5335 (fluorophore/quencher-modified) (DNA, aptamer, C3 spacer abasic at 10 of strand 2) CTCCTTCAACGAAGTGGGTCTCCTTCAACGAAGTGGGTCTC/GAGACAAGGNGACAAGGAGT; assay: fluorophore/quencher assembly titration, Hill fit; settings: 100 μM MgCl2; 10 mM Tris-HCl, pH 7.4, room temperature; 1 μM each strand; nH 1.5; apparent; b21 prints 33 μM
[12] = tested on: 38-GC-22G (DNA, aptamer) GGGAGACAAGGAAAATCCTTCGACGAAGTGGGTCTCCC; assay: ITC; settings: 20 μM aptamer, 500 μM cocaine titrant
[13] = tested on: 38-GC-21T (DNA, aptamer) GGGAGACAAGGAAAATCCTTTAACGAAGTGGGTCTCCC; assay: ITC; settings: 20 μM aptamer, 500 μM cocaine titrant
[14] = tested on: PSA (DNA, aptamer, C3 spacer abasic at 3 of strand 2) CTCCTTCAACGAAGTGGGTTCC/GGNACAAGGAG; assay: ITC, single-site fit; settings: 100 μM MgCl2; 10 mM Tris-HCl, pH 7.4, 20 °C
[15] = tested on: CBSA-M1 (DNA, aptamer, C3 spacer abasic at 10 of strand 2) CTCCTTCAACGAAGTGGGTTCCTTCGACGAAGTGGGTCTC/GAGACAAGGNACAAGGAG; assay: ATMND quenching assembly assay; settings: 100 μM MgCl2; 10 mM Tris-HCl, pH 7.4; 1 μM each strand; 200 nM ATMND; cocaine tested at 250 μM
[16] = tested on: 38-GC-20A (DNA, aptamer) GGGAGACAAGGAAAATCCTACAACGAAGTGGGTCTCCC; assay: ITC; settings: 20 μM aptamer, 500 μM cocaine titrant
[17] = tested on: CBSA-M2 (DNA, aptamer, C3 spacer abasic at 10 of strand 2) CTCCTTCGACGAAGTGGGTTCCTTCAACGAAGTGGGTCTC/GAGACAAGGNACAAGGAG; assay: ATMND quenching assembly assay; settings: 100 μM MgCl2; 10 mM Tris-HCl, pH 7.4; 1 μM each strand; 200 nM ATMND; cocaine tested at 250 μM
[18] = tested on: CBSA-5445 (DNA, aptamer, C3 spacer abasic at 11 of strand 2) CTCCTTCAACGAAGTGGGTTCTTCCTTCAACGAAGTGGGTCTC/GAGACAAGGANGAACAAGGAG; assay: ATMND quenching assembly assay; settings: 100 μM MgCl2
[19] = tested on: CBSA-5335 (fluorophore/quencher-modified) (DNA, aptamer, C3 spacer abasic at 10 of strand 2) CTCCTTCAACGAAGTGGGTCTCCTTCAACGAAGTGGGTCTC/GAGACAAGGNGACAAGGAGT; assay: fluorophore/quencher assembly assay; settings: 100 μM MgCl2

binding [1]: yes | KD [2]: 0.365 µM
Structure (SMILES): Cc1nc2nc(N)ccc2c(C)c1C

Structure (SMILES): COC(=O)[C@H]1[C@@H](OC(=O)c2ccccc2)C[C@@H]2CC[C@H]1N2C
K 1/2 [3]: 106 µM | K 1/2 [4]: 125 µM | KD [5]: 714 µM | KD [6]: 2.60 µM | KD [7]: 169 µM | binding [8]: yes | binding [9]: weak | binding [10]: yes | K 1/2 [11]: 36 µM | binding [12]: no | KD [13]: 49.3 µM | KD [14]: 2000 µM | binding [15]: no | KD [16]: 169 µM | binding [17]: no | binding [18]: yes

binding ([19]; 10% saliva, room temperature, 19% cross-reactivity at 50 μM, 3% at 5 μM): weak
Structure (SMILES): CCOC(=O)[C@H]1[C@@H](OC(=O)c2ccccc2)C[C@@H]2CC[C@H]1N2C

binding [19]: no
Structure (SMILES): CN1[C@H]2CC[C@@H]1[C@@H](C(=O)O)[C@@H](OC(=O)c1ccccc1)C2

binding [19]: no
Structure (SMILES): COC(=O)C1=CC[C@@H]2CC[C@H]1N2C

binding ([19]; 10% saliva, 10 mM Tris-HCl, pH 7.4, room temperature, tested at 50 μM): no
Structure (SMILES): CN1CCC[C@H]1c1cccnc1
